Patent US20250361268A1, “NOVEL ANTI-INFLAMMATORY PEPTIDE AND USE THEREOF” (NOVACELL TECHNOLOGY INC., priority 2022, published 2025)
Peptide text beside a SMILES is read from it.

Legend:
FPR2 = target: T1, FPR2 (Homo sapiens, UniProt P25090); assay: Change in calcium activity by peptide (Fura-2) in RBL cells overexpressing FPR2; format: cell-based; settings: calcium activity (Fura-2), graded per Table 3, read-out: EC50 for [Ca^2+] FPR2
T1 construct: expressed in transfected cells; host or cells: RBL cells (RBL-FPR2)
T1 sequence (P25090 1-351): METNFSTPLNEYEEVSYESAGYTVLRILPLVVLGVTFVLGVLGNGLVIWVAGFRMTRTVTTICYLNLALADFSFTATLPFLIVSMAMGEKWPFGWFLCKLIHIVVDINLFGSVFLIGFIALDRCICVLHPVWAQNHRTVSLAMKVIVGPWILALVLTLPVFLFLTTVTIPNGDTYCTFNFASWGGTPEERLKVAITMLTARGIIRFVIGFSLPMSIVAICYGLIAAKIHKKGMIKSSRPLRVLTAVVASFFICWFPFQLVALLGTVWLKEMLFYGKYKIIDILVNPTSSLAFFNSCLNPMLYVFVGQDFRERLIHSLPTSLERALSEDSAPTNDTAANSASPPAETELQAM
Procedure, shortened: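 Rat basophilic leukemia cells overexpressing FPR2 loaded with Fura-2 (37 °C 1 h, then RT 30 min dark); peptides (0.5 mM stocks in water or 50% DMSO) diluted in HBSS + 20 mM HEPES and added on a plate reader, intracellular Ca2+ change recorded.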

FPR1 = target: T2, FPR1 (Homo sapiens, UniProt P21462); assay: Change in calcium activity by peptide, FPR1 activation effect; format: cell-based; settings: calcium activity (Fura-2), graded per Table 3, read-out: EC50 for [Ca^2+] FPR1
T2 sequence (P21462 1-350): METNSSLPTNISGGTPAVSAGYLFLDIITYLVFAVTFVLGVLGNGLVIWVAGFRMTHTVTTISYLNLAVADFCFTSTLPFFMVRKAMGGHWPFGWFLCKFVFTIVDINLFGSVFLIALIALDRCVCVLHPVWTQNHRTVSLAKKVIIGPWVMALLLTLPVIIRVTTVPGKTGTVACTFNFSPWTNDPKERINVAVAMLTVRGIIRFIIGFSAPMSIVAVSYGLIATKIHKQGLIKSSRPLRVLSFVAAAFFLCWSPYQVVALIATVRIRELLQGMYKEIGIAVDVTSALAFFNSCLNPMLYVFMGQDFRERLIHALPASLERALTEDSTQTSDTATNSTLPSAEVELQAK
Procedure, shortened: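 Cells plated at 3×10^5 per well the day before were loaded with Fura-2 for 1 h at 37 °C, then kept 30 min in the dark at room temperature. Peptide-evoked calcium changes were recorded on a FlexStation 3.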

Row | SMILES | EC50 (FPR2) [nM] | EC50 (FPR1) [nM]
1 | CSCC[C@@H](NC(=O)[C@@H]1CCCN1C(=O)[C@H](CCCCN)NC(=O)[C@H](Cc1ccc(O)cc1)NC(=O)[C@H](CCCNC(=N)N)NC(=O)[C@H](Cc1c[nH]c2ccccc12)NC(=O)[C@@H](N)CCCNC(=N)N)C(N)=O [Peptide 74] (HELM PEPTIDE1{R.W.R.Y.K.P.[dM].[am]}$$$$V2.0) | < 10 | > 10000
2 | CCCC(=O)N[C@@H](CCCNC(=N)N)C(=O)N[C@@H](Cc1c[nH]c2ccccc12)C(=O)N[C@@H](CCCNC(=N)N)C(=O)N[C@@H](Cc1ccc(O)cc1)C(=O)N[C@@H](CCCCN)C(=O)N1CCC[C@H]1C(=O)N[C@H](CCSC)C(N)=O [Peptide 75] (HELM PEPTIDE1{[CCCC(=O)[*:2]].R.W.R.Y.K.P.[dM].[am]}$$$$V2.0) | < 10 | 1000 to 10000
3 | CSCC[C@@H](NC(=O)[C@@H]1CCCN1C(=O)[C@H](CCCCN)NC(=O)[C@H](Cc1ccc(O)cc1)NC(=O)[C@H](CCCNC(=N)N)NC(=O)[C@H](Cc1c[nH]c2ccccc12)NC(C)=O)C(N)=O [Peptide 76] (HELM PEPTIDE1{[ac].W.R.Y.K.P.[dM].[am]}$$$$V2.0) | < 10 | 1000 to 10000
4 | CSCC[C@@H](NC(=O)[C@H](Cc1ccc(O)cc1)NC(=O)[C@H](Cc1c[nH]c2ccccc12)NC(=O)[C@H](Cc1ccc(O)cc1)NC(=O)[C@H](CCCNC(=N)N)NC(=O)[C@H](Cc1c[nH]c2ccccc12)NC(=O)[C@@H](N)CCCNC(=N)N)C(N)=O [Peptide 77] (HELM PEPTIDE1{R.W.R.Y.W.Y.[dM].[am]}$$$$V2.0) | 11 to 100 | > 10000
5 | CSCC[C@@H](NC(=O)[C@H](Cc1ccc(O)cc1)NC(=O)[C@H](Cc1c[nH]c2ccccc12)NC(=O)[C@H](Cc1ccc(O)cc1)NC(=O)[C@H](CCCCN)NC(=O)[C@H](Cc1c[nH]c2ccccc12)NC(=O)[C@H](CCCCN)NC(C)=O)C(N)=O [Peptide 80] (HELM PEPTIDE1{[ac].K.W.K.Y.W.Y.[dM].[am]}$$$$V2.0) | < 10 | > 10000
6 | CCCC(=O)N[C@@H](CCCNC(=N)N)C(=O)N[C@@H](CCSC)C(=O)N[C@@H](CCCNC(=N)N)C(=O)N[C@@H](Cc1ccc(O)cc1)C(=O)N[C@@H](Cc1c[nH]c2ccccc12)C(=O)N[C@@H](Cc1ccc(O)cc1)C(=O)N[C@H](CCSC)C(N)=O [Peptide 83] (HELM PEPTIDE1{[CCCC(=O)[*:2]].R.M.R.Y.W.Y.[dM].[am]}$$$$V2.0) | < 10 | > 10000
7 | CSCC[C@H](N)C(=O)N[C@@H](CCCNC(=N)N)C(=O)N[C@@H](Cc1ccc(O)cc1)C(=O)N[C@@H](Cc1c[nH]c2ccccc12)C(=O)N[C@@H](Cc1ccc(O)cc1)C(=O)N[C@H](CCSC)C(N)=O [Peptide 85] (HELM PEPTIDE1{M.R.Y.W.Y.[dM].[am]}$$$$V2.0) | < 10 | > 10000
8 | CSCC[C@H](NC(C)=O)C(=O)N[C@@H](CCCNC(=N)N)C(=O)N[C@@H](Cc1ccc(O)cc1)C(=O)N[C@@H](Cc1c[nH]c2ccccc12)C(=O)N[C@@H](Cc1ccc(O)cc1)C(=O)N[C@H](CCSC)C(N)=O [Peptide 86] (HELM PEPTIDE1{[ac].M.R.Y.W.Y.[dM].[am]}$$$$V2.0) | < 10 | > 10000
9 | CCCCCCCC(=O)N[C@@H](CCSC)C(=O)N[C@@H](CCCNC(=N)N)C(=O)N[C@@H](Cc1ccc(O)cc1)C(=O)N[C@@H](Cc1c[nH]c2ccccc12)C(=O)N[C@@H](Cc1ccc(O)cc1)C(=O)N[C@H](CCSC)C(N)=O [Peptide 88] (HELM PEPTIDE1{[CCCCCCCC(=O)[*:2]].M.R.Y.W.Y.[dM].[am]}$$$$V2.0) | 11 to 100 | > 10000
10 | CSCC[C@H](N)C(=O)N[C@@H](CCCCN)C(=O)N[C@@H](Cc1ccc(O)cc1)C(=O)N[C@@H](Cc1c[nH]c2ccccc12)C(=O)N[C@@H](Cc1ccc(O)cc1)C(=O)N[C@H](CCSC)C(N)=O [Peptide 89] (HELM PEPTIDE1{M.K.Y.W.Y.[dM].[am]}$$$$V2.0) | < 10 | > 10000
11 | CSCC[C@H](NC(C)=O)C(=O)N[C@@H](CCCCN)C(=O)N[C@@H](Cc1ccc(O)cc1)C(=O)N[C@@H](Cc1c[nH]c2ccccc12)C(=O)N[C@@H](Cc1ccc(O)cc1)C(=O)N[C@H](CCSC)C(N)=O [Peptide 90] (HELM PEPTIDE1{[ac].M.K.Y.W.Y.[dM].[am]}$$$$V2.0) | 11 to 100 | > 10000
12 | CCCC(=O)N[C@@H](CCSC)C(=O)N[C@@H](CCCCN)C(=O)N[C@@H](Cc1ccc(O)cc1)C(=O)N[C@@H](Cc1c[nH]c2ccccc12)C(=O)N[C@@H](Cc1ccc(O)cc1)C(=O)N[C@H](CCSC)C(N)=O [Peptide 91] (HELM PEPTIDE1{[CCCC(=O)[*:2]].M.K.Y.W.Y.[dM].[am]}$$$$V2.0) | 11 to 100 | > 10000
13 | CSCC[C@@H](NC(=O)[C@@H](NC(=O)[C@H](Cc1ccc(O)cc1)NC(=O)[C@H](Cc1ccc(O)cc1)NC(=O)[C@H](CCCNC(=N)N)NC(=O)[C@H](Cc1c[nH]c2ccccc12)NC(=O)[C@@H](N)CCCNC(=N)N)C(C)C)C(N)=O [Peptide 94] (HELM PEPTIDE1{R.W.R.Y.Y.V.[dM].[am]}$$$$V2.0) | < 10 | 1000 to 10000
14 | CSCC[C@@H](NC(=O)[C@@H](NC(=O)[C@H](Cc1ccc(O)cc1)NC(=O)[C@H](Cc1ccc(O)cc1)NC(=O)[C@H](CCCCN)NC(=O)[C@H](Cc1c[nH]c2ccccc12)NC(=O)[C@@H](N)CCCCN)C(C)C)C(N)=O [Peptide 96] (HELM PEPTIDE1{K.W.K.Y.Y.V.[dM].[am]}$$$$V2.0) | < 10 | 1000 to 10000

The remaining lines, values ahead:

Row | EC50 (FPR2) [nM] | EC50 (FPR1) [nM] | SMILES
15 | < 10 | > 10000 | CSCC[C@@H](NC(=O)[C@H](Cc1ccc(O)cc1)NC(=O)[C@H](Cc1c[nH]c2ccccc12)NC(=O)[C@H](Cc1ccc(O)cc1)NC(=O)[C@H](CCCNC(=N)N)NC(=O)[C@H](Cc1c[nH]c2ccccc12)NC(=O)[C@H](CCCNC(=N)N)NC(C)=O)C(N)=O [Peptide 78] (HELM PEPTIDE1{[ac].R.W.R.Y.W.Y.[dM].[am]}$$$$V2.0)
16 | 11 to 100 | > 10000 | CSCC[C@@H](NC(=O)[C@H](Cc1ccc(O)cc1)NC(=O)[C@H](Cc1c[nH]c2ccccc12)NC(=O)[C@H](Cc1ccc(O)cc1)NC(=O)[C@H](CCCNC(=N)N)NC(=O)[C@@H](N)Cc1c[nH]c2ccccc12)C(N)=O [Peptide 79] (HELM PEPTIDE1{W.R.Y.W.Y.[dM].[am]}$$$$V2.0)
17 | < 10 | > 10000 | CCCC(=O)N[C@@H](CCSC)C(=O)N[C@@H](CCCNC(=N)N)C(=O)N[C@@H](Cc1ccc(O)cc1)C(=O)N[C@@H](Cc1c[nH]c2ccccc12)C(=O)N[C@@H](Cc1ccc(O)cc1)C(=O)N[C@H](CCSC)C(N)=O [Peptide 87] (HELM PEPTIDE1{[CCCC(=O)[*:2]].M.R.Y.W.Y.[dM].[am]}$$$$V2.0)
18 | < 10 | > 10000 | CSCC[C@H](NC(=O)[C@H](Cc1c[nH]cn1)NC(C)=O)C(=O)N[C@@H](CCCNC(=N)N)C(=O)N[C@@H](Cc1ccc(O)cc1)C(=O)N[C@@H](Cc1c[nH]c2ccccc12)C(=O)N[C@@H](Cc1ccc(O)cc1)C(=O)N[C@H](CCSC)C(N)=O [Peptide 92] (HELM PEPTIDE1{[ac].H.M.R.Y.W.Y.[dM].[am]}$$$$V2.0)
19 | < 10 | 1000 to 10000 | CCCC(=O)N[C@@H](Cc1c[nH]cn1)C(=O)N[C@@H](CCSC)C(=O)N[C@@H](CCCNC(=N)N)C(=O)N[C@@H](Cc1ccc(O)cc1)C(=O)N[C@@H](Cc1c[nH]c2ccccc12)C(=O)N[C@@H](Cc1ccc(O)cc1)C(=O)N[C@H](CCSC)C(N)=O [Peptide 93] (HELM PEPTIDE1{[CCCC(=O)[*:2]].H.M.R.Y.W.Y.[dM].[am]}$$$$V2.0)
20 | 11 to 100 | 101 to 1000 | CSCC[C@@H](NC(=O)[C@@H](NC(=O)[C@H](Cc1ccc(O)cc1)NC(=O)[C@H](Cc1ccc(O)cc1)NC(=O)[C@H](CCCNC(=N)N)NC(=O)[C@H](Cc1c[nH]c2ccccc12)NC(C)=O)C(C)C)C(N)=O [Peptide 95] (HELM PEPTIDE1{[ac].W.R.Y.Y.V.[dM].[am]}$$$$V2.0)
21 | < 10 | 1000 to 10000 | CSCC[C@H](NC(=O)[C@@H](N)CCCNC(=N)N)C(=O)N[C@@H](CCCNC(=N)N)C(=O)N[C@@H](Cc1ccc(O)cc1)C(=O)N[C@@H](Cc1ccc(O)cc1)C(=O)N[C@H](C(=O)N[C@H](CCSC)C(N)=O)C(C)C [Peptide 97] (HELM PEPTIDE1{R.M.R.Y.Y.V.[dM].[am]}$$$$V2.0)
22 | < 10 | 1000 to 10000 | CSCC[C@H](NC(=O)[C@H](CCCNC(=N)N)NC(C)=O)C(=O)N[C@@H](CCCNC(=N)N)C(=O)N[C@@H](Cc1ccc(O)cc1)C(=O)N[C@@H](Cc1ccc(O)cc1)C(=O)N[C@H](C(=O)N[C@H](CCSC)C(N)=O)C(C)C [Peptide 98] (HELM PEPTIDE1{[ac].R.M.R.Y.Y.V.[dM].[am]}$$$$V2.0)
